Test results: patent US4567200A, “Esters of mercapto acyl-carnitines and pharmaceutical compositions containing same” (Sigma-Tau Industrie Farmaceutiche Riunite S.p.A., priority 1981, dated 1986)
Counter-ions that a name gives are not always drawn.

Assays:
[1] = Acute toxicity in the mouse, Weil method; conditions: in vivo, ip
Text: The acute toxicity of the compounds of general formula (I) has been studied in the mouse with the Weil method (Weil C.S., Biometr. J. 8, 249, 1952).
The LD50 values of some compounds illustrated in Table I, indicate that the compounds are remarkably well tolerated.
LD50, mg Kg^-1, ep in mice of some mercapto
acyl-carnitine esters of general formula (I).
Weil's method (N = 5, K = 4)

[2] = Protection against X-ray exposure, survival of irradiated rats; assay type: in vivo, Albino Wister rats; conditions: 20-25 mg Kg^-1 1 hour before irradiation and 10 mg Kg^-1 per day in subsequent 20 days
Method: The effect of the compounds of formula (I) towards the damages provoked by X-ray exposure was studied.
The experiment animals, Albino Wister rats, treated with the compounds under examination (20-25 mg Kg^-1 1 hour before irradiation and 10 mg Kg^-1 per day in the subsequent 20 days) were irradiated and checked over a time period to detect the onset of toxic effects and the time of survival with respect to the control group.
In table II, the percentage of survival at the 10th, 15th and 20th day from irradiation are reported.

[3] = Cutaneous regeneration from burns in rabbits; assay type: in vivo; conditions: 25 mg Kg^-1 oral once a day for seven days
Method: The ability of the compounds of formula (I) to speed up the cutaneous regeneration from burns has been tested in rabbits.
A 4 cm^2 cutaneous area of the average-top zone of the test animal back was burned.
The compounds were orally administered in aqueous solution at the dose of 25 mg Kg^-1 once a day for seven days. The area of cutaneous regeneration, i.e., the area of the newly formed tissue was then measured (Table III).

[4] = Expectorant activity (bronchial secretion), method of Perry et al.; assay type: in vivo, male rabbits; conditions: rabbits
Method: The tests were carried out on male rabbits, weighing 2-3 Kg, anesthetized with ethyl urethane, by following the method disclosed by Perry et al. (J. Pharm. Exp. Ther. 73, 65, 1941).
Each cannula was connected to a feeding device which delivered a steady flow-rate of pre-heated air (36°-38° C.) at constant humidity (80%). At the lower end of each cannula, a graduated cylinder was fitted, wherein the bronchial secretion was collected. All of the animals breathed spontaneously and consequently they self-regulated the air intake suitable for normal respiration. After an hour following cannula insertion, the animals were administered orally (by stomach tube) the compounds of general formula (I) dissolved in distilled water at the doses indicated in Table IV. Each dose of drug was administered to 5 animals. The control animals (8) were given water only. The amount of secretion was determined after 1, 2 and 4 hours from administration.

[5] = Mucolytic activity in vitro, thromboelastograph, method of Morandini et al.; conditions: human sputum
Method: The tests were carried out in vitro by using the method disclosed by Morandini et al. (Lotta contro la tubercolosi 47, n. 4, 1977). A thromboelastograph was used to follow the variations induced by the compounds of general formula (I) and acetylcysteine on the rheological properties of human sputum.

[6] = 1 ml of a 10% solution at dilution 1/30
[7] = 1 ml of a 10% solution at dilution 1/60

Row | SMILES | LD50 [1] [mg/kg] | Percentage of surviving animals ([2]; 10th day from irradiation) [%] | Percentage of surviving animals ([2]; 15th day from irradiation) [%] | Percentage of surviving animals ([2]; 20th day from irradiation) [%] | Percentage of regenerated tissue ([3]; 4th day from treatment) [%] | Percentage of regenerated tissue ([3]; 8th day from treatment) [%] | Percentage variations of bronchial secretion versus values ([4]; oral 20 mg, 1 hour) | Percentage variations of bronchial secretion versus values ([4]; oral 20 mg, 2 hours) | Percentage variations of bronchial secretion versus values ([4]; oral 20 mg, 4 hours) | Percentage drop ± s.e. of the tracing versus maximum peak (mucolytic activity index) [5, 6] [%] | Percentage drop ± s.e. of the tracing versus maximum peak (mucolytic activity index) [5, 7] [%] | Percentage variations of bronchial secretion versus values ([4]; oral 25 mg, 1 hour) | Percentage variations of bronchial secretion versus values ([4]; oral 25 mg, 2 hours) | Percentage variations of bronchial secretion versus values ([4]; oral 25 mg, 4 hours) | Percentage variations of bronchial secretion versus values ([4]; oral 15 mg, 2 hours) | Percentage variations of bronchial secretion versus values ([4]; oral 15 mg, 4 hours) | Percentage variations of bronchial secretion versus values ([4]; oral 15 mg, 1 hour)
1 | COC(=O)CC(C[N+](C)(C)C)OC(=O)CCCCS (stereo not shown) [5-mercapto valeryl carnitine methyl ester] | 219 | 85 | 60 | 40 | 45 | 100 | +0.3% | +0.5% | +1.0% | 90.2 ± 6 | 48.4 ± 4 | – | – | – | – | – | –
2 | CC(C)COC(=O)CC(C[N+](C)(C)C)OC(=O)CCCS (stereo not shown) [4-mercapto butyryl carnitine isobutyl ester] | 231 | 100 | 75 | 55 | 25 | 75 | – | – | – | – | – | +0.5% | +0.9% | +2.1% | – | – | –
3 | CCOC(=O)CC(C[N+](C)(C)C)OC(=O)CCS (stereo not shown) [3-mercapto propionyl carnitine ethyl ester] | 228 | 90 | 85 | 60 | 40 | 100 | +0.6% | +0.8% | +1.0% | 79.8 ± 4 | 39.5 ± 5 | – | – | – | – | – | –
4 | CC(C)COC(=O)CC(C[N+](C)(C)C)OC(=O)C(C)S (stereo not shown) [2-mercapto propionyl carnitine isobutyl ester] | 274 | 85 | 70 | 45 | 25 | 65 | – | – | – | 80.4 ± 7 | 42.8 ± 4 | – | – | – | -0.1% | +0.5% | –
5 | CCC(S)C(=O)OC(CC(=O)OCC(C)C)C[N+](C)(C)C (stereo not shown) [2-mercapto butyryl carnitine isobutyl ester] | 236 | 95 | 65 | 50 | 35 | 70 | – | -0.4% | +0.2% | 95.9 ± 5 | 51.2 ± 3 | – | – | – | – | – | –
6 | CC(C)OC(=O)CC(C[N+](C)(C)C)OC(=O)CS (stereo not shown) [mercapto acetyl carnitine hydrochloride isopropyl-ester] | 250 | 80 | 55 | 30 | 30 | 70 | – | – | – | 82.5 ± 5 | 44.3 ± 3 | – | – | – | +0.7% | +2.1% | +0.5%
7 | CC(=O)N[C@@H](CS)C(=O)O [Acetylcysteine, acetylcysteine, reference compound] | – | – | – | – | – | – | – | – | – | 75.6 ± 7 | 23.8 ± 5 | – | – | – | – | – | –
